Patent publication US20010036944A1, “Certain benzothiazine dioxide endothelin antagonists and processes for their preparation” (priority 1997, published 2001)
Where a name gives a salt, the structure may show the parent alone.

Assays:
[1] = tested on: acute hypoxic pulmonary hypertension; assay: Acute hypoxic pulmonary hypertension in the rat; type: in vivo; conditions: oral
[2] = target: T1, recombinant human ETAR (HETA) (Homo sapiens, UniProt P25101); assay: Radioligand binding, [125I]ET-1 to membranes of Ltk- cells expressing recombinant human ETAR (HETA); conditions: read-out: IC50 of ET-1 binding to human ETA receptors
T1 construct: expressed in transfected cells; host or cells: Ltk- cells (membrane preparation)
T1 sequence (P25101 21-427): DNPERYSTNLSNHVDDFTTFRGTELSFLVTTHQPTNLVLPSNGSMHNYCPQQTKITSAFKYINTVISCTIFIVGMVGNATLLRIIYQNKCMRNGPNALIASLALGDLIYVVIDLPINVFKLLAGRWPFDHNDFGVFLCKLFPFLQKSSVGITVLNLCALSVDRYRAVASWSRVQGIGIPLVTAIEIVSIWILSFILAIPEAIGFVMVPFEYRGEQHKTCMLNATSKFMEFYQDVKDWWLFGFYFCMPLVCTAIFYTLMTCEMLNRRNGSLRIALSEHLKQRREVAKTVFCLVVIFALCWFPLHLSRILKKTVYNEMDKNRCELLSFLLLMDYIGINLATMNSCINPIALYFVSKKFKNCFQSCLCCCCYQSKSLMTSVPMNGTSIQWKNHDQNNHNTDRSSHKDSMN
Protocol: (§1) The following cultured cells were used in binding experiments: Ltk-cells expressing recombinant human ETAR (HETA), and CHOKI cells expressing recombinant human ETBR (HETB).
(§2) Membranes were prepared from cultured cells by lysing cells in cold lysis buffer (5 mM HEPES, 2 mM EDTA, pH 7.4) and homogenizing with a Dounce “A” homogenizer. The homogenate was centrifuged at 30,000×g for 20 minutes at […]. Membrane pellets were suspended in cold buffer containing 20 mM Tris, 2 mM EDTA, 200 μM Pefabloc, 10 μM phosphoramidon, 10 μM leupeptin, 1 μM pepstatin at pH 7.4 and frozen at […] until use. Membranes were thawed and homogenized with a Brinkmann Polytron then diluted in tissue buffer containing 20 mM Tris, 2 mM EDTA, 200 μM Pefabloc, and 100 μM bacitracin (pH 7.4). Radioligand and competing ligands were prepared in binding buffer containing 20 mM Tris, 2 mM EDTA, and 0.1% BSA.
(§3) The assay was terminated by filtration over Whatman GF/B filters which were presoaked with 50 mM Tris, pH 7.4 containing 0.2% BSA and 100 μM bacitracin. Nonspecific binding was defined as binding in the presence of 100 nM ET-1.

bET-1 pressor response [3] = assay: Inhibition of bET-1 induced pressor effect in rat; type: in vivo; conditions: oral
Protocol: Inhibition of bETI Induced Pressor Effect in Rat Male Sprague-Dawley (Charles River Laboratories, Kingston, Ontario, Canada) weighing 250 to 350 g are anesthetized (Inactin, 120 mg/kg, I.P.) and acutely instrumented with a carotid artery catheter to monitor arterial blood pressure and with a jugular vein catheters to administer intravenous drugs. Once instrumented, the rats are ganglionicblocked with mecamylamine (1.25 mg/kg, I.V.) to prevent hemodynamic reflexes and then challenged with big endothelin-1 (bET-1) (1.0 nmol/kg, I.V.). The peak arterial pressor response in rats pre-treated with selected compounds of invention compared to vehicletreated rats is used to determine activity expressed as % inhibition. For I.V. activity selected compounds of invention was dose 10 minutes before the bET-1 challenge, and for oral activity selected compounds of invention was administered via oral gavage 8 or 24 hours before the bET-1 challenge.

[4] = target: T2, recombinant human ETBR (HETB) (Homo sapiens, UniProt P24530); assay: Radioligand binding, [125I]ET-1 to membranes of CHOKI cells expressing recombinant human ETBR (HETB); conditions: [125I]ET-1 binding, human ETB, CHOKI cell membranes
T2 construct: expressed in transfected cells; host or cells: CHOKI (CHO-K1) cells (membrane preparation)
T2 sequence (P24530 27-442): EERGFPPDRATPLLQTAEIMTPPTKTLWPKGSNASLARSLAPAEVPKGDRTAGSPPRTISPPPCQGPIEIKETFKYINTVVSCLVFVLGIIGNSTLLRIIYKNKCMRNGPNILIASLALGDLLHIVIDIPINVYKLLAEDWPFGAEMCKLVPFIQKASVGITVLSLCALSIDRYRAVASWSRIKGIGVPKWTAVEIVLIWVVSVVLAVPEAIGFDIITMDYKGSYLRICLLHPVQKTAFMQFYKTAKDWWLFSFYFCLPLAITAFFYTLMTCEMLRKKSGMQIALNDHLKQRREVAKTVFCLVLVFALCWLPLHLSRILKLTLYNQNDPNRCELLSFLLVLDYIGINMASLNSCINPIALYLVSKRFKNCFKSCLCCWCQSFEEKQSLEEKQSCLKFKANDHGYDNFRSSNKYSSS
Protocol: as §1, §2, §3

Pharmacokinetics in rat = conditions: in vivo
Pharmacokinetics in dog = conditions: in vivo
bET-1 pressor response [5] = assay: Inhibition of bET-1 pressor response in dog; type: in vivo; conditions: Canis lupus familiaris, oral, 24 hours postdose
[6] = tested on: ETA receptor, human pulmonary artery smooth muscle cells; assay: Blocking ET-1 induced Ca++ transients in human pulmonary artery smooth muscle cells; type: cell-based; conditions: read-out: IC50 blocking ET-1 induced Ca++ transients via the ETA receptor
[7] = tested on: ETA, rabbit femoral artery; assay: Antagonism of ET-1 stimulated vasoconstriction (VERAA) in the rabbit femoral artery (ETA)
Source text: In Vitro Antagonism of ET-1 Stimulated Vasoconstriction (VERAA) in the Rabbit Femoral Arterv (ETA) and Sarafotoxin 6C Stimulated Vasoconstriction in the Rabbit Pulmonarv Artery (ETB)
Male New Zealand rabbits were killed by cervical dislocation and exsanguination. Femoral and pulmonary arteries were isolated, cleaned of connective tissue, and cut into 4mm rings. The endothelium was denuded by placing the rings over hypodermic tubing (32 gauge for femoral rings and 28 gauge for pulmonary rings, Small Parts, Inc., Miami, Fla.) and gently rolling them. Denuded rings were mounted in 20 mL organ baths containing Krebsbicarbonate buffer (composition in mM: NaCl, 118.2; NaHCO3, 24.8; KCl, 4.6; MgSO4 7H2O, 1.2; KH2PO4, 1.2; CaCl2 2H2O; CaNa2 EDTA, 0.026;, dextrose, 10.0), that was maintained at 37° C. and gassed continuously with 5% CO2 in oxygen (pH 7.4). Resting tension was adjusted to 3.0 g for femoral and 4.0 g pulmonary arteries; the rings were left for 90 minutes to equilibrate. Vascular rings were tested for lack of functional endothelium (ie, lack of an endotheliumdependent relaxation response to carbachol ([…]) in norepinephrine ([…]) contracted rings. Agonist peptides, ET-1 -(femoral), and S6c (pulmonary), were cumulatively added at 10-minute intervals. The ET antagonists were added 30 minutes prior to adding the agonist.

**Q.** Which ED50 ([1]; dose dependent, read-out: ED50, inhibition of acute hypoxic pulmonary hypertension) does the source give for `CCc1cc(C2=C(C(=O)O)N(c3ccccc3C(F)(F)F)S(=O)(=O)c3ccccc32)cc2c1OCO2` [Example 10, 4-(7-Ethylbenzo[1,3]dioxol-5yl)-1,1 dioxo-2-(2-trifluoromethyl-phenyl) 1,2-dihydro1λ^6-benzo[e]11.2]thiazine-3-carboxylic acid, sodium salt] here?
**A.** 0.8 mg/kg

**Q.** What about the EC50 ([1]; plasma concentration, read-out: plasma EC50, inhibition of acute hypoxic pulmonary hypertension) of the same compound?
**A.** 0.046 µg/mL

**Q.** And the IC50 [2]?
**A.** 0.6 nM

**Q.** And the inhibition at 10 mg/kg (bET-1 pressor response [3]; 10 mg/kg, 8 hours postdose)?
**A.** 44%

**Q.** What about the inhibition at 30 mg/kg (bET-1 pressor response [3]; 30 mg/kg, 24 hours postdose) of the same compound?
**A.** 48%

**Q.** And the IC50 [4]?
**A.** 2200 nM

**Q.** And the bioavailability (Pharmacokinetics in rat; oral)?
**A.** 77%

**Q.** What about the half-life (Pharmacokinetics in rat; read-out: terminal elimination t1/2 (converted)) of the same compound?
**A.** 510 min

**Q.** What about the half-life (Pharmacokinetics in dog) of the same compound?
**A.** 132 min

**Q.** What about the bioavailability (Pharmacokinetics in dog; oral) of the same compound?
**A.** 100%

**Q.** And the inhibition at 15 mg/kg (bET-1 pressor response [5])?
**A.** 25%

**Q.** And the IC50 [6]?
**A.** 0.2 nM

**Q.** And the “pA2, antagonism to ET-1 stimulated vasoconstriction in rabbit femoral artery” value [7]?
**A.** 7.7

**Q.** And the “VERAA (pA2)” value ([7]; ET-1 stimulated vasoconstriction, rabbit femoral artery)?
**A.** 7.7
